Earlier results as cited in patent US20240191206A1, “SERUM FREE MEDIA FOR SUSPENSION CULTURE OF MAMMALIAN LIVESTOCK PLURIPOTENT STEM CELLS” (ACCELLTA LTD., priority 2021, published 2024).

O=S(=O)(F)Cc1ccccc1 [PMSF, phenylmethylsulfonyl fluoride]
stability in water: rapidly degraded | concentration at which proteolytic inhibition occurs (serine protease): 0.1 to 1 mM
